From patent US4493796A, “Didemnins A, B, C, and derivatives thereof, as antiviral agents” (Board of Trustees, Univ. of Ill., priority 1984, dated 1985) come the findings set out here.

One data set relates to cells. The data set is described as follows: Agar diffusion plaque inhibition assay, zone of cytotoxicity (cell death). It is filed as cell-based. As to conditions: 50 μg of test compound. The method, then:
These tests were performed by the methods described in the following published reference: (H. E. Renis, C. A. Hollowell, and G. E. Underwood, J. Med. Chem., Vol 10, pp 777-782 (1967)). Both DNA and RNA-containing viruses were used. The results are presented below as the zone of cytotoxicity (cell death)/zone of viral plaque inhibition for 50 μg of test compound.
A general note: Agar diffusion results depend on both activity and mobility in agar.

The test system of the next data set is PR-8 Influenza (RNA). Type of data set: cell-based, Influenza virus. The conditions noted are these: PR8; 50 μg of test compound.
Data set [1] concerns Coxsackie A21 virus (RNA). The data set is described as follows: Agar diffusion plaque inhibition assay, COE. It is filed as cell-based. As to conditions: 50 μg of test compound.
The subject of data set [2] is Parainfluenza 3 virus (RNA). Type of data set: cell-based. As to conditions: HA-1; 50 μg of test compound.
The test system of another data set is Equine rhinovirus (RNA). The experiment in a line: Agar diffusion plaque inhibition assay, E.R. Type of data set: cell-based. The conditions noted are these: 50 μg of test compound.
The test system of data set [3] is Herpes simplex virus type I (DNA). The data set is described as follows: Agar diffusion plaque inhibition assay, HSV-1. It is filed as cell-based. As to conditions: 50 μg of test compound.
The test system of data set [4] is Herpes simplex virus type II (DNA). The experiment in a line: Agar diffusion plaque inhibition assay, HSV-2. It is filed as cell-based. The conditions noted are these: 50 μg of test compound.
A further data set relates to Vaccinia virus (DNA). It is filed as cell-based. The conditions noted are these: VACC.; 50 μg of test compound.

On to `COc1ccc(C[C@H]2C(=O)O[C@H](C)[C@H](NC(=O)[C@@H](CC(C)C)N(C)C(=O)C3CCCN3C(=O)C(C)OC(C)=O)C(=O)NC(CC(C)C)C(OC(C)=O)CC(=O)OC(C(C)C)C(=O)C(C)C(=O)N[C@@H](CC(C)C)C(=O)N3CCC[C@H]3C(=O)N2C)cc1` (some centres unmarked) [Diacetyl], for which the “zone of cytotoxicity (cell death)” value in the data set with cells (COE) is on record as 3; in the data set on cells (E.R.), 2; in the data set with cells (HA-1), 1; in the data set with cells (HSV-1) it was 3; with cells (HSV-2), 3; with cells (PR8), 3. Moreover, the “zone of cytotoxicity (cell death)” value with cells (VACC.) stood at 3. Moreover, the “zone of viral plaque inhibition” value with PR-8 Influenza (RNA) is 0; in data set [1], 3; in data set [2], 0; in the data set on Equine rhinovirus (RNA), 4; in data set [3] it was 4; in data set [4], 4. The “zone of viral plaque inhibition” value with Vaccinia virus (DNA) was 4.
